Patent publication US20080160033A1, “Novel Screening Method” (Takeda Pharmaceutical Company Limited, priority 2003, published 2008)

Key:
[1] = target: T1, human 14273 (Homo sapiens, UniProt Q5NUL3); assay: Change in intracellular calcium level (FLIPR) in CHO-K1 cells transiently expressing human 14273; type: cell-based; conditions: 30 μM fatty acid (FIG. 1-5); human 14273-expressed CHO-K1 cells; no response in expression vector alone-transfected control cells
T1 construct: expressed in transfected cells; host or cells: CHO-K1, transient transfection (Lipofectamine) with the pAKKO-111-based expression vector
T1 sequence (Q5NUL3 1-361): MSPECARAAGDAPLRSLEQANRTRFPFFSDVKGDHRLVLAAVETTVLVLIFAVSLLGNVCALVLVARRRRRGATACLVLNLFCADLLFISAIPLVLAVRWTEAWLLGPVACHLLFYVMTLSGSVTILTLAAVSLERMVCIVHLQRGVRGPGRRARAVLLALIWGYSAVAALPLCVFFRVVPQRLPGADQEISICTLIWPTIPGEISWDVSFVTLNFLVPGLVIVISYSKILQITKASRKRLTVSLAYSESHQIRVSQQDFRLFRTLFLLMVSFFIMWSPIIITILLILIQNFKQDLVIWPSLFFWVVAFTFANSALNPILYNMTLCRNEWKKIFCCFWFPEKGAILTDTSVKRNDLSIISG
Protocol: (§1) CHO-K1 cells were incubated in Ham F-12 medium (Invitrogen) containing […] calf fetal serum, unless otherwise indicated. On the day before transfection, the cells were plated in 4.5×10^5/10 cm^2 and incubated at 37° C., for 15 hours or longer in a CO2 incubator adjusted to a 5% CO2 concentration. Transfection was carried out by a modification of the procedure described in the protocol attached to the reagent, using Lipofectamine reagent (Invitrogen). Where a 6-well plate was used for the incubator, the procedure was performed as follows. First, 2 tubes each having a 1.5 ml volume were prepared and 100 μl each of Opti-MEM-1 medium (Invitrogen) were dispensed in each tube. Next, after 1 μg of the expression vector was charged in one tube and in another tube 6 μl of the Lipofectamine reagent was charged, they were mixed and settled at room temperature for 20 minutes. A mixture for transfection of The resulting solution was added with 800 μl of Opti-MEM-1 medium and the resulting mixture for transfection was added to CHO-K1 cells previously washed with Opti-MEM-1 medium, followed by incubation in a CO2 incubator for 6 hours. The cells after incubation were rinsed with PBS (Invitrogen), then scraped off using 0.05% trypsin-EDTA solution (Invitrogen) and recovered by centrifugation. The cells collected were counted and diluted to contain 5×10^4 cells per 100 μl of the medium. The dilution was dispensed in a black walled 96-well plate (Costar) at a density of 100 μl/well, followed by incubation overnight in a CO2 incubator. Various samples were added to the CHO-K1 cells, which transiently expressed the receptor by the transfection procedure described above, and a change in intracellular calcium level was measured using FLIPR (Molecular Device). To measure the change in intracellular calcium level on FILPR; the cells were pretreated as follows. First, an assay buffer was prepared to add fluorescent dye Fluo3-AM (DOJIN) to the cells, or to wash the cells immediately before the FLIPR assay. A solution was prepared by adding 20 ml of 1M HEPES (pH 7.4) (DOJIN) to 1000 ml of HBSS (Invitrogen) (hereinafter, HBSS/HEPES solution). After 710 mg of probenecid (Sigma) was dissolved in 5 nil of 1N NaOH, 5 ml of the HBSS/HEPES solution was further added to the solution and the two solutions were mixed with each other. Then, 10 ml of the solution mixture was added to the HBSS/HEPES solution and the resulting solution was used as the assay buffer. Next, 50 μg of Fluo3-AM was added to 21 μl of DMSO (DOJIN) and an equal volume of 20% pluronic acid (Molecular Probes) was added thereto, followed by mixing them. […] Following the pretreatment above, a change in intracellular calcium level was determined with FLIPR, after various test samples were added.

[2] = target: T2, mouse 14273 (Mus musculus, UniProt Q7TMA4); assay: Change in intracellular calcium level (FLIPR) in CHO-K1 cells transiently expressing mouse 14273; type: cell-based; conditions: 30 μM fatty acid (FIG. 1-5); mouse 14273-expressed CHO-K1 cells; no response in expression vector alone-transfected control cells
T2 construct: expressed in transfected cells; host or cells: CHO-K1, transient transfection (Lipofectamine) with the pAKKO-111-based expression vector
T2 sequence (Q7TMA4 1-361): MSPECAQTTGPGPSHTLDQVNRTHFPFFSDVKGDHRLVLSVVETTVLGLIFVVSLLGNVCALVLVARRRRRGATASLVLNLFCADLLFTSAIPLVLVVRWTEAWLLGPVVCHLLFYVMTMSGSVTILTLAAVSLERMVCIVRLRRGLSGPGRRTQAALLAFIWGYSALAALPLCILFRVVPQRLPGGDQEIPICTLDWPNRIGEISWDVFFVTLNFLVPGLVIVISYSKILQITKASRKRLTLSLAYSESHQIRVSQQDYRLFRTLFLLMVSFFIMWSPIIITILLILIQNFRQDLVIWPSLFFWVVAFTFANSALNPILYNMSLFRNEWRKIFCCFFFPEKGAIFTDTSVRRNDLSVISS
Protocol: as §1

[3] = tested on: AtT-20 cells; assay: Suppression of CRF-induced ACTH secretion from AtT-20 cells; conditions: 10 nM CRF, 90 minutes; fatty acid with BSA
[4] = target: T1, human 14273; assay: Effects of fatty acids on cAMP production in human 14273-expressed CHO cells; type: cell-based; conditions: in the presence of forskolin (2 μM); fatty acid 30 μM (FIG. 9); not observed in control CHO cells without human 14273
Protocol: After the reaction, the cells were lysed in accordance with the formulation of cAMP Screen (ABI) and the intracellular cAMP level was assayed.

[5] = tested on: 3T3-L1 cells; assay: Lipolysis (glycerol production) in 3T3-L1 adipose differentiation cells stimulated with isoproterenol; type: cell-based, mouse; conditions: 1×10^−9 M isoproterenol plus fatty acid, 2 hours; differentiated 3T3-L1 cells
Protocol: Effects on lipolysis were examined using mouse fibroblast cell line 3T3-L1 cells capable of differentiating into adipocytes. […] The 3T3-L1 cells were plated on a plate and incubated to become confluent. The cells were then treated for 48 hours in the aforesaid medium containing 10 μg/ml of insulin, 0.5 mM 3-isobutyl-1-methylxanthine (IBMX), 2.5 μM dexamethasone to induce differentiation into adipose. Incubation was continued for further 11 days. After the 3T3-L1 cells were differentiated into adipose, a change in the amount of glycerol produced by lipolysis was assayed. After the cells were washed with modified Krebs-Ringer buffer, 1×10^−9 M isoproterenol was added to the cell and simultaneously a fatty acid was added thereto, followed by treatment for 2 hours. The supernatant was then recovered. The glycerol content in the supernatant was determined using Free Glycerol Determination Kit (Sigma).

[6] = tested on: mouse 14273-GFP fused protein; assay: Suppression of expression of mouse 14273-GFP fused protein by siRNA in CHO cells (enzyme immunoassay); type: cell-based; conditions: siRNA 20 nM cotransfected to CHO cells, incubation for a day; absorbance at 450 nm
Protocol: After the culture supernatant was discarded and the cells were washed with HBSS (Invitrogen), the cells were fixed with 0.01% glutaraldehyde (Wako Pure Chemical) for 5 minutes, followed by blocking with 2% BSA-containing PBS (Takara Shuzo). Anti-GFP monoclonal antibody 3E6 (Nippon Gene) diluted to 500-fold was added to the cells. After incubation at room temperature for 2 hours, the cells were washed and HRP-labeled anti-mouse IgG antibody (ICN) diluted to 500-fold was added thereto, followed by incubation at room temperature for 2 hours. After washing, TMB microwell peroxidase substrate (Funakoshi) was added to the cells. After incubation for 30 minutes, sulfuric acid was added to discontinue the color-forming reaction and absorbance was measured at 450 nm.

Molecule | change in intracellular calcium level [1] | change in intracellular calcium level [2] | suppression of ACTH secretion induced by CRF [3] | cAMP production suppressing activity [4] | further results
CCCCCC/C=C\CCCCCCCC(=O)O [Palmitoleic acid] | specifically responded (increased the intracellular calcium level) | specifically responded (increased the intracellular calcium level) | – | – | –
CCCCC/C=C\C/C=C\C/C=C\C/C=C\CCCC(=O)O [arachidonic acid] | specifically responded (increased the intracellular calcium level) | specifically responded (increased the intracellular calcium level) | – | – | –
CCCC(=O)O [butyric acid] | – | – | did not show any significant suppression | did not show any suppressing activity | –
CCCCC/C=C\C/C=C\CCCCCCCC(=O)O [linoleic acid] | specifically responded (increased the intracellular calcium level) | specifically responded (increased the intracellular calcium level) | – | showed the cAMP production suppressing activity | –
CCCCC/C=C\C/C=C\CCCCCCCC(=O)OC [methyl linoleate] | – | – | – | – | glycerol production increased by isoproterenol stimulation (lipolysis) [5]: such an activity was not observed
CCCCCCCC/C=C\CCCCCCCC(=O)O [oleic acid] | – | – | – | showed the cAMP production suppressing activity | –
CC/C=C\C/C=C\C/C=C\CCCCCCCC(=O)O [α-linoleic acid] | – | – | suppression of ACTH secretion induced by CRF was observed more significantly | – | –
CCCCC/C=C\C/C=C\C/C=C\CCCCC(=O)O [γ-linolenic acid] | specifically responded (increased the intracellular calcium level) | specifically responded (increased the intracellular calcium level) | suppression of ACTH secretion induced by CRF was observed more significantly | showed the cAMP production suppressing activity | glycerol production increased by isoproterenol stimulation (lipolysis) [5]: resulted in lowering the glycerol production
m14i561: mouse 14273-specific siRNA; sense strand SEQ ID NO: 21, antisense strand SEQ ID NO: 22 (sense GGACCAGGAAAUUCCGAUUNN; antisense NNCCUGGUCCUUUAAGGCUAA; chemistry not fully specified; one strand is listed 3' to 5') | – | – | – | – | suppression of the expression level of pAKKO-14273-GFP [6]: 97%
